Key:
[1] = system: Chick Chorioallantoic Membrane (CAM); experiment: Chick chorioallantoic membrane (CAM) assay, blood vessel density; type: in vivo; conditions: 12.5 μg per embryo in 0.5% methylcellulose, vs vehicle control
Experimental: A CAM assay was conducted as previously described (K. Amin, J. Li, and W-R. Chao, Cancer Biol. Ther. 2: 173-178, (2003). Briefly, fresh fertile eggs were incubated in a standard egg incubator at 37° C. for 3 days. On Day 3, eggs were cracked under sterile conditions and embryos were placed into 20×100 mm sterile plastic Petri dishes and cultivated at 37° C. in an embryo incubator with a water reservoir on the bottom shelf. Air was continuously bubbled into the water reservoir using a small pump so that the humidity in the incubator was kept constant. On Day 6, a sterile silicon “o” ring was placed on each CAM, and test compound (2) dissolved in 0.5% methylcellulose was delivered into each “o” ring under sterile conditions. Embryos were returned to the incubator. Control embryos received 10 μL of vehicle alone, while 12.5 μg of (2) was delivered to test embryos. On Day 8, embryos were removed from the incubator and kept at room temperature while blood vessel density was determined under each “o” ring using an image capturing system at a magnification of 160×.

[2] = system: HIF-1α protein in PC-3 prostate cancer cells; experiment: HIF-1α protein expression by immunoblotting, PC-3 cells; type: cell-based, human; conditions: 6 h
Experimental: (§1) Hypoxia experiments were performed in either of two ways. To produce a very low ambient oxygen concentration (effectively anoxia), we used a protocol in which cells were incubated in a 5% CO2-air atmosphere at 37° C. overnight and then placed in aluminum gas-exchange chambers maintained at 37° C. (Laderoute K R et al. Mol Cell Biol 22: 2515-2523, (2002); Laderoute K R et al. Mol Cell Biol 24: 4128-4137, (2004)). The chambers containing the cells were then placed in a 37° C. circulating water bath and the original atmosphere was repeatedly exchanged with 5% CO2-95% N2 using a manifold equipped with a vacuum pump and a gas cylinder. Atmospheric oxygen partial pressure (pO2) values of less than or equal to 0.01% (relative to air at pO2 of about 21%) can be achieved inside the chambers using this system. Following various hypoxic exposures, the chambers were opened an anaerobic glove box (Bactron X, Sheldon Manufacturing Inc., Cornelius, Oreg.; attached to a cylinder containing 5% CO2-95% N2) to prepare cell lysates without significant reoxygenation. All manipulations of hypoxic cells were performed in the anaerobic glove box. Atmospheric oxygen levels in both the chambers and the glove box have been measured and calibrated using a polarographic oxygen electrode (Oxygen Sensors, Inc., Norristown, Pa.). Hypoxia experiments involving a pO2 of 1% were performed by equilibrating the glove box with an atmosphere of 1% O2 5% CO2 95% N2 held at 37° C. with a circulating fan. Cells were incubated inside a humidified space in the glove box and the medium on the cells was gently and continually agitated by using a rotary shaker. For these experiments, we used RAW 264.7 immortalized mouse macrophages as normal control cells, PC-3 prostate cancer cells, and MDA-MB-231 breast cancer cells, all available from ATCC.
(§2) We used immunoblotting to evaluate the experiments. Nuclear lysates were used to detect HIF-1α protein by immunoblotting (Murphy B J et al. Biochem Biophys Res Commun (In Press): 2005). Briefly, cells were placed on ice in air or on Super Ice® cold packs in the anaerobic glove box and the medium was removed. […] After spinning at 9,000×g for 5 min at 4° C., the protein concentrations of the supernatants were determined by using a bicinchoninic acid assay (Pierce Biotechnology). […] Primary antibody binding was detected and visualized by using the ECL Plus Western Blotting Detection System (Amersham Pharmacia Biotech) according to the supplier's instructions. HIF-1α protein was detected by using an anti-HIF-1α monoclonal antibody (Novus Biologicals, Cat. No. NB100-123; diluted 1:500) and a horseradish peroxidase-conjugated anti-mouse IgG secondary antibody (Santa Cruz Biotechnology, Cat. No. sc-2062; diluted 1:20,000). […]

[3] = system: HIF-1α protein in MDA-MB-231 human breast carcinoma cells; experiment: HIF-1α protein expression by immunoblotting, MDA-MB-231 cells; type: cell-based; conditions: MDA-MB-231, normoxic and anoxic
Experimental: as §1, with “Hypoxia experiments involving a pO2 of 1% were performed by equilibrating the glove box with an atmosphere of 1% O2 5% CO2 95% N2 held at 37° C. with a circulating fan. Cells were incubated inside a humidified space in the glove box and the medium on the cells was gently and continually agitated by using a rotary shaker. For these experiments, we used RAW 264.7 immortalized mouse macrophages as normal control cells, PC-3 prostate cancer cells, and MDA-MB-231 breast cancer cells, all available from ATCC.” left out
as §2, with “experiments.” for “experiments. Nuclear lysates were used to detect HIF-1α protein by immunoblotting (Murphy B J et al. Biochem Biophys Res Commun (In Press): 2005). Briefly, cells were placed on ice in air or on Super Ice® cold packs in the anaerobic glove box and the medium was removed.”

[4] = molecular target: T1, Human recombinant estrogen receptor-β (ER-β) (Homo sapiens, UniProt Q92731); experiment: Estrogen receptor binding assay, 3H-17β-estradiol displacement, ER-β; conditions: 4° C. overnight
T1 construct: purchased PanVera Corporation (Madison, Wis.)
T1 sequence (Q92731 whole entry): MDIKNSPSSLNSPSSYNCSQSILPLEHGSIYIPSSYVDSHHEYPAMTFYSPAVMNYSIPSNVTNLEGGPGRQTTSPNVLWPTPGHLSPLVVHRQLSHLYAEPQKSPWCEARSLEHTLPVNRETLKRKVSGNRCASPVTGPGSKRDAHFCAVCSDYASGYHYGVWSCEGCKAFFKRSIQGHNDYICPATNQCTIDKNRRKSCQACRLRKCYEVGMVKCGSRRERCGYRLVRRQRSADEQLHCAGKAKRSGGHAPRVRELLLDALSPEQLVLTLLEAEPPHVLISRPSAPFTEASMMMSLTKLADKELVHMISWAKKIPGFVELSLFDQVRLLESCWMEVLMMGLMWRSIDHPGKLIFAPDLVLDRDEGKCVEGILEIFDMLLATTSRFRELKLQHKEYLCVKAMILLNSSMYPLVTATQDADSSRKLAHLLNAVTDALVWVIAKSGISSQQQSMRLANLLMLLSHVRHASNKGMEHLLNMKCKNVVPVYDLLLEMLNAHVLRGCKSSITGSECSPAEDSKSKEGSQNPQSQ
Experimental: Human recombinant estrogen receptor-α (ER-α) and estrogen receptor-β (ER-β) were obtained from PanVera Corporation (Madison, Wis.) to conduct the binding assay. To measure the binding affinity of (2), various concentrations of (2) or 17β-estradiol were incubated with either ER-α or ER-β receptor in the presence of a fixed amount of ^3H-17β-estradiol at 4° C. overnight. At the end of the incubation, the free- and bound-3H-estradiol were separated following the instructions provided by the manufacturer using hydroxylapatite.

C[C@@H]1Cc2cc(O)ccc2C2CCC3(C)/C(=C/COCCN(C)C)CCC3C21 (stereo partly drawn) [Compound (2), (E)-3-Hydroxy-7α-methyl-21-[(2-dimethylamino)ethoxy]-19-norpregna-1,3,5(10),17(20)-tetraene]
blood vessel density [1]: drastically decreased the blood vessel density | HIF-1α protein expression ([2]; PC-3, anoxic, hypoxic and normoxic conditions, less than or equal to 5 μM): potent inhibitory effect | cytotoxicity toward PC-3 cells ([2]; PC-3, less than or equal to 5 μM): without obvious cytotoxicity | HIF-1α protein expression [3]: potent inhibitor | binding affinity (relative to non-radiolabeled estradiol, 50% displacement of 3H-estradiol) [4]: 64

Reference: patent US20120252773A1, “Method and composition for inhibiting cell proliferation and angiogenesis” (priority 2005, published 2012)
